{"source": "patent US20150148324A1", "about": "(VALPHARMA INTERNATIONAL S.P.A., priority 2012, published 2015)", "origin": "cited, not measured here", "tested_on": "uterine fibroma", "settings": "daily oral 5 mg for 6 months, versus higher doses"}
{"smiles": "CC#C[C@]1(O)CC[C@H]2[C@@H]3CCC4=CC(=O)CCC4=C3[C@@H](c3ccc(N(C)C)cc3)C[C@@]21C", "note": "[Mifepristone]", "values": [{"measurement": "effect in the treatment of uterine fibroma", "value": "effects comparable with those of higher doses of Mifepristone"}]}
